From publication PMC9181543, “Lysosomal Exocytosis of Olivacine on the Way to Explain Drug Resistance in Cancer Cells” (International Journal of Molecular Sciences, 2022)

Columns and labels:
CCRF/CEM cells [1] = assay: MTT assay (mitochondrial activity), CCRF/CEM; type: cell-based; conditions: Homo sapiens
Experimental: (§1) The anticancer activity of tested compounds was assessed on five human cell lines selected from the panel of tumor cell lines recommended by the National Cancer Institute: A495 (lung carcinoma), CCRF/CEM (acute lymphoblastic leukemia), LoVo and LoVo/DX (two types of colorectal: non-resistant and resistant to doxorubicin), and MCF-7 (breast adenocarcinoma). In addition, the NHDF cell line (normal human dermal fibroblasts) was used to estimate cytotoxicity to noncancer cells. The A549, CCRF/CEM, LoVo, LoVo/DX, and MCF-7 cells were obtained from ECACC, and NHDF cells from LONZA, Belgium. The A549 and MCF-7 cells were grown in EMEM medium, CCRF/CEM cells in RPMI-1640, LoVo and LoVo/DX cells in DMEM/F-12, and NHDF cells in DMEM without phenol red. The cells were seeded in […] in the biological assay, as recommended by the National Cancer Institute. All culture media were supplemented with L-glutamine, penicillin, streptomycin, and 10% fetal bovine serum (FBS). Cells were incubated at 37 °C and 5% CO2. An assessment of the mitochondrial cell activity after applying tested compounds was carried out using the test MTT assay, recommended in the ISO 10993-5:2009 standard. As in the SRB assay, the cells were exposed to tested compounds after 24 h of initial incubation in 96-well plates. The MTT solution (1 mg/mL) was added to each well, and cells were incubated for 2 h. Finally, the supernatant was removed, and the formazan crystals were dissolved in isopropanol. After 30 min, absorbance at 570 nm in Victor2 microplate reader (PerkinElmer). Cell viability was determined as the IC50 ratio, i.e., the concentration of the compound in which the viability was reduced by half compared with the control.

NHDF cells [2] = assay: MTT assay (mitochondrial activity), NHDF; type: cell-based; conditions: Homo sapiens, NHDF normal cells
Experimental: as §1

NHDF cells [3] = assay: SRB assay (total protein content), NHDF; type: cell-based; conditions: Homo sapiens, NHDF normal cells, 48 h incubation
Experimental: (§2) The anticancer activity of tested compounds was assessed on five human cell lines selected from the panel of tumor cell lines recommended by the National Cancer Institute: A495 (lung carcinoma), CCRF/CEM (acute lymphoblastic leukemia), LoVo and LoVo/DX (two types of colorectal: non-resistant and resistant to doxorubicin), and MCF-7 (breast adenocarcinoma). In addition, the NHDF cell line (normal human dermal fibroblasts) was used to estimate cytotoxicity to noncancer cells. The A549, CCRF/CEM, LoVo, LoVo/DX, and MCF-7 cells were obtained from ECACC, and NHDF cells from LONZA, Belgium. The A549 and MCF-7 cells were grown in EMEM medium, CCRF/CEM cells in RPMI-1640, LoVo and LoVo/DX cells in DMEM/F-12, and NHDF cells in DMEM without phenol red. The cells were seeded in […] in the biological assay, as recommended by the National Cancer Institute. All culture media were supplemented with L-glutamine, penicillin, streptomycin, and 10% fetal bovine serum (FBS). Cells were incubated at 37 °C and 5% CO2. One of the most popular in vitro tests to evaluate the activity of compounds with potential antitumor activity is the SRB assay. The sulforhodamine B dye is used, which binds to the protein at the appropriate pH. The assay allows for assessing cell mass and, indirectly, their proliferation. The advantage of the assay is that it measures cellular protein content and not the activity of any enzymes. The SRB assay was carried out according to the National Cancer Institute procedure. Cells were incubated in a culture medium for 24 h in 96-well plates. After 24 h, the control plate for each cell line was fixed with TCA to evaluate cell culture before treatment with tested compounds. […] Cell cultures were then fixed by adding 50% TCA at 4 °C for 1 h. After removing the supernatant, the plates were washed with water and dried. […] Growth inhibition was calculated following the NCI guidelines and expressed as the GI50 ratio, i.e., the concentration of the compound in which the amount of protein was reduced by half compared with the control.

CCRF/CEM cells [4] = assay: Evaluation of the cell cycle (Tali Cell Cycle Kit); type: cell-based, human; conditions: for cell cycle effect: after exposure
Experimental: It is expected that tested compounds affect cell division processes (intense in cancer). Therefore, the effect of compounds on the cell cycle was assessed by quantifying the content of cellular DNA in CCRF/CEM cells with Tali Cell Cycle Kit (Invitrogen). Cells were prepared by 24 h initial incubation in RPMI-1640 medium followed by the addition of tested compounds for a further 24 h. Subsequently, cells were harvested, centrifuged, washed, dissolved in PBS, and centrifuged again. After removing PBS, the cells were resuspended in Tali Cell Cycle Solution and incubated for 20 min in the dark at RT. Finally, the cells were transferred to the Tali Cellular Analysis Slides and analyzed using an image-based cytometer Arthur (NanoEnTek Inc.).

MCF-7 cells = assay: SRB assay (total protein content), MCF-7; type: cell-based; conditions: Homo sapiens, MCF7, 48 h incubation
Experimental: as §2

LoVo cells [5] = assay: SRB assay (total protein content), LoVo; type: cell-based; conditions: Homo sapiens, 48 h incubation
Experimental: as §2

LoVo cells [6] = assay: MTT assay (mitochondrial activity), LoVo; type: cell-based; conditions: Homo sapiens
Experimental: as §1

CCRF/CEM cells [7] = assay: Rate of apoptosis (annexin V/PI, Tali Apoptosis Kit); type: cell-based, human; conditions: 24 h incubation, tested 0.2, 0.5 and 1 μM
Experimental: Apoptosis is a process of programmed cell death. After exposure to tested compounds, the apoptosis rate was measured using Tali Apoptosis Kit (Invitrogen, Thermo Fisher Scientific, Waltham, MA, USA). In the process of apoptosis, phosphatidylserine (PS) is transferred to the outer side of the cell membrane. The assay uses the ability of fluorophore-labeled annexin V to identify apoptotic cells by binding to exposed PS. The CCRF/CEM cells were incubated in RPMI-1640 medium in 24-well plates for 24 h (37 °C, 5% CO2). Then, tested compounds were added at three different concentrations (0.2, 0.5, and 1 μM) and incubated for 24 h. Negative control was the culture of cells not exposed to apoptosis-inducing factors. After incubation with tested compounds, the cells were harvested, centrifuged, and the supernatant removed. Cells were suspended in annexin V binding buffer (ABB), and Alexa Fluor 488 annexin V conjugate was added to each sample. The cells were then incubated for 20 min in the dark at RT, centrifuged, and resuspended in ABB with propidium iodide (PI). After 5 min incubation, the stained samples were transferred to Tali Cellular Analysis Slides and analyzed using an image-based cytometer Arthur (NanoEnTek Inc., Seoul, Korea).

LoVo/DX cells = assay: MTT assay (mitochondrial activity), LoVo/DX; type: cell-based; conditions: Homo sapiens, LoVo/DX cells (doxorubicin-resistant)
Experimental: as §1

CCRF/CEM cells [8] = assay: SRB assay (total protein content), CCRF/CEM; type: cell-based; conditions: Homo sapiens, 48 h incubation
Experimental: as §2

Compound	IC50 (CCRF/CEM cells [1]) [µM]	IC50 (NHDF cells [2]) [µM]	GI50 (NHDF cells [3]) [µM]	cell cycle effect (CCRF/CEM cells [4])	GI50 (MCF-7 cells) [µM]	GI50 (LoVo cells [5]) [µM]	IC50 (LoVo cells [6]) [µM]	concentration at which apoptosis was induced (CCRF/CEM cells [7]) [µM]	IC50 (LoVo/DX cells) [µM]	GI50 (CCRF/CEM cells [8]) [µM]	cell cycle inhibition at lower concentrations (CCRF/CEM cells [4]; 0.2 µM and 0.5 µM)
Cc1c2ccncc2c(C)c2c1[nH]c1ccccc12 [Ellipticine]	5.86 ± 0.51	8.98 ± 1.44	4.44 ± 0.74	blockade of the cell cycle in the G0/G1 phase	1.25 ± 0.77	0.95 ± 0.25	3.27 ± 0.83	1	15.1 ± 1.73	0.77 ± 0.17	–
Cc1nccc2c(C)c3[nH]c4ccccc4c3cc12 [Olivacine, 1,5-dimethyl-6H-pyrido[4,3-b]carbazole]	11 ± 3.3	15.3 ± 1.95	14.8 ± 3.77	blockade of the cell cycle in the G0/G1 phase	0.75 ± 0.07	1.02 ± 0.21	12.7 ± 1.08	1	26.3 ± 4.64	0.81 ± 0.14	No cell cycle inhibition
